Experimental data as given in publication PMC12278645, “Design, synthesis, and antitumor activity of novel thioheterocyclic nucleoside derivatives by suppressing the c-MYC pathway” (Acta Pharmaceutica Sinica. B, 2025).
Like-named read-outs stand apart in the source and are kept apart here.

Tests used:
[1] = tested on: HCT116 cells; test: RNA-sequencing analysis; format: cell-based, human; settings: 48 h
Procedure: Total RNA was isolated from the HCT11 cells using Trizol (Invitrogen Life Technologies Corporation, Carlsbad, USA), cDNA synthesis followed by adaptor ligation and enrichment according to the instructions. The purified library products were evaluated using Illumina NovaSeq 6000 (paired-end 150 bp).

[2] = Metabolites in mice (LC-QTOF/MS); format: in vivo, BALB/c mice; settings: 55 mg/kg, mixed plasma 0-24 h
Procedure: SPF BALB/c mice were adaptively fed for one week. In the control group, mice received an intravenous injection of an equal volume of solvent. In the Model group, mice received an intravenous injection of 55 mg/kg of 33a. Following administration at time points of 0, 0.25, 0.5, 1, 2, 4, 8, 12, and 24 h, mixed plasma samples were collected from mice in each group. Subsequently, blood metabolites were detected, identified, and analyzed utilizing LC-QTOF/MS technology.
The ionization mode is Electrospray Ionization in positive mode (ESI+), with an ion source voltage of 5 kV and a temperature set at 550 °C. The collision energy (CE) is 30 eV. The nebulizing gas, gas1 (nebulizer gas), and gas2 (auxiliary gas) are all nitrogen (N2) with their pressures set to 55 psi. The curtain gas (CUR) pressure is 35 psi. The parent ion scan range for the first-order mass spectrum is m/z […] to 1000, and the daughter ion scan range is m/z 50 to 1000. Dynamic Background Subtraction (DBS) is activated. The software used for data acquisition is Analyst® TF 1.8 software.

[3] = Acute toxicity assay; format: in vivo; settings: for Death rate: 10 mice; for Number of dead mice: of 5
Procedure: SPF BALB/c mice were divided into […] randomly (n = 10, 5 male, and 5 female) and injected intraperitoneally with defined dosages of compound 33a (90, 260, 350, 450, 600, and 800 mg/kg) or dilute (DMSO: castor oil: PBS = 1:2:7, v/v/v). The mice were observed continuously for 14 days after administration. The number of mortalities during the experiment was recorded, and the statistical result of the experimental endpoint was used to calculate LD50.

[4] = Tissue distribution (LC-MS/MS); format: in vivo, BALB/c mice; settings: for concentration at 4 h: BALB/c, mouse, intraperitoneal, 55 mg/kg intraperitoneally, after 4 h

In the case of CCOC(=O)[C@]1(n2cnc3c(N4CCCCC4)nc(F)nc32)CSC[C@H]1O (racemic) [33a], the genes significantly downregulated ([1]; 0.8 μmol/L) is reported as 221, the genes significantly upregulated ([1]; 0.8 μmol/Lol/L) is reported as 265 and the “metabolic pathways” value [2] is reported as “hydrolysis of carboxylic acid ester and glucuronidation”. For the same molecule, the Death rate ([3]; 90 mg/kg i.p.) was 0%, the “Number of dead mice” value ([3]; 90 mg/kg, ♀) was 0 and the “Number of dead mice” value ([3]; 90 mg/kg, ♂) was 0. The Death rate ([3]; 260 mg/kg i.p.) was 0%, the “Number of dead mice” value ([3]; 260 mg/kg, ♀) was 0 and the “Number of dead mice” value ([3]; 260 mg/kg, ♂) was 0. The Death rate ([3]; 350 mg/kg i.p.) was 10%, the “Number of dead mice” value ([3]; 350 mg/kg, ♀) was 1 and the “Number of dead mice” value ([3]; 350 mg/kg, ♂) was 0. The Death rate ([3]; 450 mg/kg i.p.) was 20%, the “Number of dead mice” value ([3]; 450 mg/kg, ♀) was 2 and the “Number of dead mice” value ([3]; 450 mg/kg, ♂) was 0. For the same molecule, the Death rate ([3]; 600 mg/kg i.p.) was 60%, the “Number of dead mice” value ([3]; 600 mg/kg, ♀) was 3 and the “Number of dead mice” value ([3]; 600 mg/kg, ♂) was 3. For the same molecule, the Death rate ([3]; 800 mg/kg i.p.) was 100%, the “Number of dead mice” value ([3]; 800 mg/kg, ♀) was 5 and the “Number of dead mice” value ([3]; 800 mg/kg, ♂) was 5. For the same molecule, the LD50 at 14 days ([3]; both sexes, mouse, in vivo, ip, BALB/c mice, intraperitoneal, observed 14 days) was 553 mg/kg, the “blood-brain barrier passage” value ([4]; 55 mg/kg, 4 h) was “can readily cross the blood‒brain barrier” and the concentration at 4 h ([4]; brain, read-out: concentration in brain) was 87900 ± 21500 ng/g. The concentration at 4 h ([4]; heart, read-out: concentration in heart) was 16900 ± 2990 ng/g, the concentration at 4 h ([4]; kidney, read-out: concentration in kidney) was 70400 ± 5140 ng/g and the concentration at 4 h ([4]; liver, read-out: concentration in liver) was 12500 ± 2130 ng/g. For the same molecule, the concentration at 4 h ([4]; lung, read-out: concentration in lung) was 38500 ± 4430 ng/g and the concentration at 4 h ([4]; spleen, read-out: concentration in spleen) was 5490 ± 2450 ng/g.
